Experimental data: US12521362B2, “Agent for treating, preventing, or improving psychiatric and nervous system disorders or symptoms” (TOKYO UNIVERSITY OF SCIENCE FOUNDATION, priority 2019, dated 2026)

Legend:
[1] = tested on: anxiety-like behaviors in mice; experiment: Elevated plus maze (EPM) test of exploration behavior
Text: An elevated plus maze (EPM) apparatus (FIG. 1) was used to assess anxiety-like behaviors in mice administered with any of the test drugs. The EPM apparatus is a plus-shaped maze apparatus with open and closed arms and is used for assessment of anxiety-like behaviors of animals. Animals administered with a benzodiazepine (BZD) anxiolytic drug are known to increase the ratio of time spent in the open arm and the ratio of open arm entries. The EPM test is the most representative test available as a system for evaluating an anxiolytic drug.
Mice were acclimated to the testing laboratory for 60 minutes, and a prepared test drug was then administered to each mouse at a dose of 0.25 mL/20 g. After the elapse of a predetermined period of time from the administration of the drug, the EPM apparatus was used to quantify exploration behavior of the mouse for 5 minutes. The equations below were used to evaluate the effects of each test drug on exploration behavior in mice. Statistical analysis was performed with Dunnett's multiple comparison test, and a significant difference was considered at P<0.05. Time spent in open arm (%)−Time spent in open arm (sec)/{Time spent in open arm (sec)+Time spent in closed arm (sec)}×100 Open arm entry (%)−Open arm entries (times)/{Open arm entries (times)+Closed arm entries (times)}×100 Total arm entries (times)=Open arm entries (times)+Closed arm entries (times) 2.
Disulfiram was administered intraperitoneally to mice (n=8 per group) at a dose of 20, 40, or 80 mg/kg, and the mice were tested 30 minutes after the administration for their exploration behavior by using the EPM apparatus. As a positive control experiment, diazepam, a BZD anxiolytic drug, was administered subcutaneously to mice at a dose of 1.5 mg/kg (equivalent to the dose used clinically for humans), and the mice were similarly tested for their exploration behavior by using the EPM apparatus. A solution of 2% Tween 80, 10% DMSO, and 88% corn oil was administered intraperitoneally to mice in the solvent control group.
Disulfiram was administered to mice (n=8 per group) at a dose of 40 mg/kg, and the mice were tested 15, 30, 60, or 120 minutes after the administration for their exploration behavior by using the EPM apparatus.
Cyanamide was investigated for the presence of an anxiolytic-like effect. Cyanamide or disulfiram was administered to mice (n=6 per group) at a dose of 80 or 40 mg/kg, respectively, and the mice were tested 30 minutes after the administration for their exploration behavior by using the EPM apparatus.
The iron(III) complex of diethyldithiocarbamate (DDC) (Fe(DDC)3) as a disulfiram (DSF)-related compound was investigated for the presence of an anxiolytic-like effect. Each drug was administered intraperitoneally to mice in the Fe(DDC)3 dose group (n=5) and the DDC dose group (n=4) at a dose of 40 mg/kg. A solution of 2% Tween 80, 10% DMSO, and 88% corn oil was administered intraperitoneally to mice in the solvent control group (n=9). Thirty minutes after the administration, the elevated plus maze test was performed for 5 minutes.
The copper complex of DDC (Cu(DDC)2) as a DSF-related compound was investigated for the presence of an anxiolytic-like effect. Cu(DDC)2 was administered orally to mice (n=4) at a dose of 40 mg/kg. A solution of 2% Tween 80, 10% DMSO, and 88% corn oil was administered orally to mice in the solvent control group (n=4). Sixty minutes after the administration, the elevated plus maze test was performed for 5 minutes.

[2] = tested on: hyperemotional response and hyperactivity in mice; experiment: Hyperemotional response and hyperactivity after chronic administration; type: in vivo, ICR mice; details: DSF diet freely for 3 months
Protocol: To 1 g of an MF diet, 0.8 mg of DSF and 50 mg of sucrose or only 50 mg of sucrose (without DSF) were added to prepare a DSF diet or a control diet, respectively, as a solid diet. ICR mice were allowed to eat the DSF diet (200 mg/day) freely for 3 months to assess hyperemotional response and hyperactivity. Hyperemotional response was evaluated in those mice according to the method of Kelly et al., (Kelly, J. P. et al., Pharmacol. Ther. Vol. 74, No. 3, pp. 299-316, 1997) by individually scoring (A) the response to an object placed in front of the nose, (B) the response to air blown thereon, or (C) the resistance to handling, based on the following criteria of emotional responses: • 0: no response; • 1: interest in the object, or only a slight movement, or easy to handle; • 2: protective or evasive actions against the object, or expression of surprise, or nervous but still easy to handle; • 3: aggressive actions such as biting, or clear expression of surprise, or nervous and difficult to handle; • 4: highly aggressive actions, or expression of surprise with jumping, or quite difficult to handle. The hyperactivity of each mouse was measured over a period of 30 seconds by counting the number of times the mouse crossed the lines that divided the floor of a cage to four areas.

[3] = tested on: spatial learning ability in mice; experiment: Morris water maze task (WM); type: in vivo, Male C57BL/6J mice; details: DSF diet for 4 weeks
Protocol: To 1 g of an MF diet, 0.8 mg of DSF and 50 mg of sucrose or only 50 mg of sucrose (without DSF) were added to prepare a DSF diet or a control diet, respectively, as a solid diet. Next, the Morris water maze task (WM) was conducted to assess spatial learning ability in mice administered with any of the test drugs. The WM is widely used for assessing spatial learning and memory in mice (Morris, R. G. M., Learning and Motivation: 1981, 12, 239-260). A WM apparatus was a circular pool of 120 cm in diameter, filled with white-colored water and equipped with a submerged platform (PF) on which a mouse was allowed to stand and rest. Mice were allowed to swim from a randomly selected starting point in the pool, and the distance spent swimming before reaching the hidden platform was measured (FIG. 9A). […] Thus, the spatial learning ability can be assessed based on the distance traveled to find the platform. […] The effect of a test drug on spatial memory formation was evaluated from the ratio of time spent exploring the area at each probe trial after the platform was removed from the original location. […] At the WM learning trials, the distance spent swimming before reaching the platform was measured every day to evaluate the effect of each test drug on the spatial learning of the mice. Moreover, the effect of each test drug on the spatial memory formation in the mice was evaluated at the probe trials.

[4] = tested on: mouse models of depression (SDS models); experiment: Social interaction (SI) test after social defeat stress (SDS models); type: in vivo, C57BL/6J mice; details: DSF diet freely for 3 months, then SDS for 10 days; control group SI time significantly decreased (FIG. 11)
Protocol: To 1 g of an MF diet, 0.8 mg of DSF and 50 mg of sucrose or only 50 mg of sucrose (without DSF) were added to prepare a DSF diet or a control diet, respectively, as a solid diet. C57BL/6J mice were allowed to eat the DSF diet (200 mg/day) freely for 3 months and then exposed to social defeat stress (SDS) for 10 days to create mouse models of depression (SDS models) (Golden S. A. et al., Nat Protoc. Vol. 6, No. 8, pp. 1183-1191, 2011). The SDS models were created by placing a single C57BL/6J mouse in a home cage where a male ICR mouse had been housed for a long period of time and exposing the mouse to physical aggression by the ICR mouse. In this study, the stress exposure was applied for 10 minutes a day in a period of consecutive 10 days. Depressive-like symptoms were evaluated by the social interaction (SI) test (Golden S. A. et al., 2011, supra). An apparatus composed of an open field apparatus (45 cm×45 cm×30 cm) and a mesh cage (8 cm×6 cm×30 cm) placed on one side of the open field apparatus was used to perform the SI test, in which the time (SI time) spent by the C57BL/6J mouse approaching and making contact with the ICR mouse (Target) in the mesh cage during the measurement time (2.5 minutes) was compared with that in the absence of the ICR mouse (Non-target).

[5] = tested on: wild-type APP-transfected cells; details: in vitro, cultured cells; data of Patent Document 3; cited from earlier work
[6] = tested on: object recognition function in mice; experiment: Novel object location task (NOL), memory retrieval task; type: in vivo, Male C57BL/6J mice; details: DSF diet (0.8 mg DSF per 1 g diet) for 3 weeks; p<0.05 (FIG. 8)
Protocol: To 1 g of an MF diet, 0.8 mg of DSF and 50 mg of sucrose or only 50 mg of sucrose (without DSF) were added to prepare a DSF diet or a control diet, respectively, as a solid diet. The novel object location task (NOL) was conducted to assess object recognition function in mice administered with any of the test drugs. The NOL is a test used to evaluate the ability to remember the location of an object (Dix, S. L. & Aggleton, J. P., Behav Brain Res: 1999 March; 99(2): 191-200). Mice were placed in a 33 cm square white box (open field: OF) and allowed to explore the white box freely for 10 minutes every day in the period of 3 days (acclimation). On Day 4, two objects with the same shape were placed in the OF apparatus, and the mice were allowed to learn the locations of the objects (FIG. 8; learning). On Day 5, one of the objects was relocated to a location that was different from the original location during the learning tasks, and the mice were allowed to explore the objects for 5 minutes, and the length of time spent exploring the objects was measured (FIG. 8; memory retrieval task). […] In the NOL memory retrieval task, the length of time spent exploring each object was measured to evaluate the effect of each test drug on the cognitive ability of the mice.

[7] = subcutaneous 1.5 mg/kg, positive control (FIG. 3)
[8] = oral 40 mg/kg, sixty minutes after administration (FIG. 7)
[9] = intraperitoneal 40 mg/kg, 30 minutes, two mice with no sedative effect (FIG. 6)
[10] = 80 mg/kg, 30 minutes after administration (FIG. 5)
[11] = 40 mg/kg, time course 15-120 minutes
[12] = intraperitoneal 20, 40 or 80 mg/kg, 30 minutes after administration, dose-dependent, vs solvent control (FIG. 2)

With `CN1C(=O)CN=C(c2ccccc2)c2cc(Cl)ccc21` [diazepam, Diazepam] the “ratio of open arm entries” value [1, 7] was “increased” and the “ratio of time spent in the open arm” value [1, 7] was “increased”.

With “copper diethyldithiocarbamate [Cu(DDC)2]” the anxiolytic-like effect [1, 8] was “confirmed to have an anxiolytic-like effect”, the “ratio of time spent in the open arm” value [1, 8] was “significantly increased” and the “ratio of open arm entries” value ([1]; oral 40 mg/kg, sixty minutes after administration, not significantly different (FIG. 7)) was “clear tendency to increase”.

With `CCN(CC)C(=S)[S-].CCN(CC)C(=S)[S-].CCN(CC)C(=S)[S-].[Fe+3]` [Fe(DDC)3, diethyldithiocarbamic acid ferric salt] the anxiolytic-like effect ([1]; intraperitoneal 40 mg/kg, 30 minutes (FIG. 6)) was “confirmed to have an anxiolytic-like effect”, the sedative effect ([1]; intraperitoneal 40 mg/kg, 30 minutes, observed in three mice of n=5, no exploration) was “strong sedative effect” and the “ratio of open arm entries” value [1, 9] was “significantly increased”. The “ratio of time spent in the open arm” value [1, 9] was “significantly increased”.

In the case of `N#CN` [Cyanamide, cyanamide (H2 N—CN)], the anxiolytic-like effect [1, 10] is reported as “no anxiolytic-like effect”, the “ratio of open arm entries” value [1, 10] is reported as “no significant effects” and the “ratio of time spent in the open arm” value [1, 10] is reported as “no significant effects”.

In the case of `CCN(CC)C(=S)SSC(=S)N(CC)CC` [disulfiram, tetraethylthiuram disulfide], the “hyperemotional response (score)” value ([2]; vs control diet group (FIG. 10A)) is reported as “significant decreases”, the “hyperactivity (line crossings in 30 seconds)” value ([2]; vs control diet group (FIG. 10B)) is reported as “significant decreases” and the “distance traveled to find the platform” value ([3]; Days 4 and 6, p<0.05 vs control diet (FIG. 9A)) is reported as “shorter”. For the same compound, the “time spent for exploring the platform area at the probe trial” value ([3]; probe trial on Day 5, p<0.05 vs control diet (FIG. 9B)) was “significantly longer”, the “ratio of time spent in the open arm” value ([1]; 40 mg/kg, tested 15, 30, 60 or 120 minutes after administration, increased from 15 minutes (FIG. 4)) was “significantly increased” and the “effect observed till (time after the administration)” value [1, 11] was 60 min. For the same compound, the “time of peak anxiolytic-like effect” value [1, 11] was 30 min, the anxiolytic-like effect ([1]; disulfiram 40 mg/kg to 80 mg/kg i.p. compared with diazepam 1.5 mg/kg s.c.) was “comparable to that of diazepam” and the “ratio of open arm entries” value [1, 12] was “significantly increased”. For the same compound, the “ratio of time spent in the open arm” value [1, 12] was “significantly increased”, the “SI time in the presence of the Target vs Non-target” value [4] was “any change in SI time was not observed” and the “secretion of sAPPα” value [5] was “promote secretion of sAPPα”. The “time spent exploring the relocated object vs the object remaining at the original location” value [6] was “significantly longer”.
